Data set [1] is described as follows: Gelatinizing ability in aqueous solutions of varying pH (gel formation observed). It counts as physicochemical. Details: key to formation of a gel, pH 168 / formation of a gel, pH 401 / formation of a gel, pH 755 / formation of a gel, pH 918 / formation of a gel, milliQ water: the formation of gel is indicated by “G”; partial formation of gel is indicated by “LG”; unchanged aqueous solution is indicated by “S”; the formation of a precipitate is indicated by “P”; insolubility is indicated by “I”. The settings on record: for formation of a gel, pH 401: 10 mg compound in 0.5 ml buffer solution pH 401; for formation of a gel, pH 401 / formation of a gel, pH 755 / formation of a gel, pH 918 / formation of a gel, pH 168 / formation of a gel, milliQ water: 60° C. or more, ultrasound one hour, then room temperature; for formation of a gel, pH 755: 10 mg compound in 0.5 ml buffer solution pH 755; for formation of a gel, pH 918: 10 mg compound in 0.5 ml buffer solution pH 918; for formation of a gel, pH 168: 10 mg compound in 0.5 ml buffer solution; for formation of a gel, milliQ water: 10 mg compound in 0.5 ml milliQ water (distilled water); for solidification of milliQ water (distilled water) or water of pH 4–9: concentration of hydrogelatinizer 2wt %. As to the method: The gelatinizing ability was examined for aqueous solutions, of varying pH, of Compounds 1–7 synthesized in Manufacturing Examples 1–7. 10 mg of these compounds was placed in a sample bottle together with 0.5 ml of buffer solution adjusted to various pH, and while maintaining the temperature at 60° C. or more, the mixture was irradiated with ultrasound for one hour. After leaving the resulting aqueous solution at room temperature, the formation of a gel was observed.
In the table, the formation of gel is indicated by “G”, partial formation of gel is indicated by “LG”, unchanged aqueous solution is indicated by “S”, the formation of a precipitate is indicated by “P”, and insolubility is indicated by “I”.

Data set [2] can be described thus: Hydrogel formation in water (dissolve at 60° C. or more, leave at room temperature). The settings on record: left at room temperature. The format is physicochemical. As to the method:
Next, the method of manufacturing a hydrogel will be described. The gelatinizer of the invention is dissolved in an aqueous solution. A weakly acidic (pH 4) or weakly alkaline (pH 10) aqueous solution is preferred from the viewpoint of solubility. If the pH of the aqueous solution is less than 4, all of the phosphoric acid part is protonated, and it is difficult to dissolve in water. If the pH is higher than 10, the phosphoric acid part dissociates, and remains dissociated so that the water is not solidified. After dissolving the compound in the aqueous solution with heating, it is gradually cooled to room temperature and allowed to stand. In the dissolution process, heat alone is sufficient if the compound can be completely dissolved. If necessary, the compound can be efficiently converted to a simple dispersion in an aqueous solvent by ultrasound. The heating time is of the order of 30 minutes to 2 hours, but to ensure that dissolution of the compound is complete, it is preferably one hour or more. When the aqueous solution in which the compound has been dissolved is gradually cooled in air, and left at room temperature, the aqueous solution solidifies within one day-several days, and forms a hydrogel. […] The fluidity of the resulting gel may be varied by adjusting the pH of the water and the concentration of the gelatinizer during manufacture. In general, the formation of the hydrogel may be observed with the naked eye, but if the microstructure of the gel is observed using an optical microscope or scanning electron microscope, it can be seen that extremely fine fibers of the order of nanometers are entangled together to form a lattice structure.

Where [3] appears, read: 100 mg in 0.5 ml of water, dissolved at 60° C. or more.

This note sets out measurements from patent US7202228B2, “Hydrogelation agents” (Japan Science and Technology Agency, priority 2001, dated 2007).

The structures appear in SMILES notation.

Turning to `Cc1cn([C@H]2C[C@H](OP(=O)(O)OCCCCCCCCCCCCOP(=O)(O)O[C@H]3C[C@H](n4cc(C)c(=O)[nH]c4=O)O[C@@H]3CO)[C@@H](CO)O2)c(=O)[nH]c1=O` [Compound 1, 1,12-(dodecanedioxy)bis(3′-phosphatidyl-2′-deoxythymidine)], in data set [1], the “formation of a gel, pH 401” value is recorded as “S”; the “formation of a gel, pH 755” value is “S”; the “formation of a gel, pH 918” value is recorded as “S”; the “formation of a gel, pH 168” value is reported as “I”. In addition, the “formation of a gel, milliQ water” value in data set [1] is “S”. Besides, the hydrogel formation result in data set [2] (setting [3]) is listed as “solidified after several days”.
As to `Cc1cn([C@H]2C[C@H](OP(=O)(O)OCCCCCCCCCCCCCOP(=O)(O)O[C@H]3C[C@H](n4cc(C)c(=O)[nH]c4=O)O[C@@H]3CO)[C@@H](CO)O2)c(=O)[nH]c1=O` [Compound 2, 1,13-(tridecanedioxy)bis-(3′-phosphatidyl-2′-deoxythymidine)], in data set [1], the “formation of a gel, pH 401” value is “S”; the “formation of a gel, pH 755” value is “S”; the “formation of a gel, pH 918” value is given as “S”; the “formation of a gel, pH 168” value was “I”. In data set [1], the “formation of a gel, milliQ water” value is recorded as “S”. The hydrogel formation entry in data set [2] (setting [3]) is listed as “a hydrogel was obtained”.
Turning to `Cc1cn(C2CC(OP(=O)(O)OCCCCCCCCCCCCCCOP(=O)(O)OC3CC(n4cc(C)c(=O)[nH]c4=O)OC3CO)C(CO)O2)c(=O)[nH]c1=O` (stereo not shown) [Compound 3, 1,14-(tetradecanedioxy)bis-(3′-phosphatidyl-2′-deoxythymidine)], in data set [1], the “formation of a gel, pH 401” value was “S”; the “formation of a gel, pH 755” value was “S”; the “formation of a gel, pH 918” value was “S”; the “formation of a gel, pH 168” value was “I”. Moreover, in data set [1], the “formation of a gel, milliQ water” value was “S”.
Take `Cc1cn(C2CC(OP(=O)(O)OCCCCCCCCCCCCCCCOP(=O)(O)OC3CC(n4cc(C)c(=O)[nH]c4=O)OC3CO)C(CO)O2)c(=O)[nH]c1=O` (stereo not shown) [Compound 4, 1,15-(pentadecanedioxy)-bis(3′-phosphatidyl-2′-deoxythymidine)]: in data set [1], the “formation of a gel, pH 401” value is on record as “S”; the “formation of a gel, pH 755” value is reported as “S”; the “formation of a gel, pH 918” value is recorded as “S”; the “formation of a gel, pH 168” value is “I”. In data set [1], the “formation of a gel, milliQ water” value is recorded as “P”.
As for `Cc1cn([C@H]2C[C@H](OP(=O)(O)OCCCCCCCCCCCCCCCCOP(=O)(O)O[C@H]3C[C@H](n4cc(C)c(=O)[nH]c4=O)O[C@@H]3CO)[C@@H](CO)O2)c(=O)[nH]c1=O` [Compound 5, 1,16-(hexadecanedioxy)-bis(3′-phosphatidyl-2′-deoxythymidine)], in data set [1], the “formation of a gel, pH 401” value is “S”; the “formation of a gel, pH 755” value is listed as “S”; the “formation of a gel, pH 918” value was “S”; the “formation of a gel, pH 168” value is “I”. In addition, the “formation of a gel, milliQ water” value in data set [1] was “P”.
For the compound `Cc1cn([C@H]2C[C@H](OP(=O)(O)OCCCCCCCCCCCCCCCCCCOP(=O)(O)O[C@H]3C[C@H](n4cc(C)c(=O)[nH]c4=O)O[C@@H]3CO)[C@@H](CO)O2)c(=O)[nH]c1=O` [Compound 6, 1,18-(octadecanedioxy)bis-(3′-phosphatidyl-2′-deoxythymidine)], in data set [1], the “formation of a gel, pH 401” value is reported as “P”; the “formation of a gel, pH 755” value is “P”; the “formation of a gel, pH 918” value is “S”; the “formation of a gel, pH 168” value is on record as “I”. Further, in data set [1], the “formation of a gel, milliQ water” value is listed as “G” and the “solidification of milliQ water (distilled water) or water of pH 4–9” value was “efficiently solidified”.
As for `Cc1cn([C@H]2C[C@H](OP(=O)(O)OCCCCCCCCCCCCCCCCCCCCOP(=O)(O)O[C@H]3C[C@H](n4cc(C)c(=O)[nH]c4=O)O[C@@H]3CO)[C@@H](CO)O2)c(=O)[nH]c1=O` [Compound 7, 1,20-(icosanedioxy)bis-(3′-phosphatidyl-2′-deoxythymidine)], in data set [1], the “formation of a gel, pH 401” value was “LG”; the “formation of a gel, pH 755” value is given as “G”; the “formation of a gel, pH 918” value is “G”; the “formation of a gel, pH 168” value is on record as “I”. In data set [1], the “formation of a gel, milliQ water” value is listed as “G” and the “solidification of milliQ water (distilled water) or water of pH 4–9” value is listed as “efficiently solidified”. For the same compound, in data set [2] (1 mg in 0.5 ml of water, 60° C. or more, ultrasound one hour), the hydrogel formation result is listed as “solidified after several days”.
